Data reported in US8691183B2, “Means for the detection and treatment of prostate cells” (Eberhard-Karls-Universitaet Tuebingen Universitaetsklinikum, priority 2008, dated 2014).

Assays:
nude mice organs = test: CLSM of frozen sections of nude mice organs after intraperitoneal injection; assay type: in vivo, nude mouse; conditions: 90 minutes after intraperitoneal injection
Experimental: (§1) PC3 and LNCaP prostate tumor cells were grown to 80% confluency, detached with Accutase™ (PAA Laboratories, Pasching, Austria) and then harvested. The cells were washed with PBS three times and then drawn up into a 30 g Micro-Fine™ insulin syringe (Becton Dickinson, Franklin Lakes, N.J., USA). Approximately 5×10^5 cells per mouse were injected into the right thigh of a male CD1 Nu/Nu mouse (Charles River, WIGA, Sulzfeld, Germany). The tumor growth was monitored and after 10 to 14 days mice bearing tumors with 2-3 mm in diameter were treated with the conjugate. 1.5 mg of the compound 1 were dissolved in 300 μl PBS containing 20% ethanol and applied intraperitoneally. After 90 minutes of circulation the mice were sacrificed and subsequently the tumors and organs were removed, embedded in Jung tissue freezing medium (Leica Instruments, Nussloch, Germany) and frozen in liquid nitrogen. Frozen sections (5 μm thickness) were prepared (LD3000 Cryotom, Leica Biosystems GmbH, Nussloch, Germany) and the rhodamine staining was analyzed by confocal laser scanning
(§2) The experiments were repeated two times.

[1] = system: healthy human epithelial prostate cells (CC2555); test: Confocal laser scanning microscopy (CLSM) of cellular uptake; assay type: cell-based; conditions: 20 minutes incubation, 10 μg/ml
Experimental: (§3) The cells were grown to 80% confluency at 37° C., 5% CO2 (vol/vol) in 4-well plates (NUNC, Wiesbaden, Germany) with about 300,000 cells per well.
(§4) U373 human glioma cells, human prostate carcinoma cells PC3 and LNCaP, human Jurkat lymphoma cells, and human colon carcinoma cells Colo205 were grown in RPMI1640 ready mix medium containing L-glutamine and 10% fetal bovine serum (FBS)-gold (PAA Laboratories, Pasching, Austria). U2OS human osteosarcoma cells and HeLa human cervix carcinoma cells were grown in high glucose Dulbeccos modified Eagle's medium containing GlutaMax™ and pyrovate and 10% FBS-gold. Healthy human prostate cells (CC2555, Lonza, Verviers, Belgium) were cultivated in prostate endothelial cell growth medium (PrEGM, Lonza, Verviers, Belgium).
The compounds 1, 2 and 4 were dissolved at 1 mg/ml in pure ethanol (Riedel de Haen, Sigma-Aldrich, Taufkirchen, Germany) and then diluted in the appropriate medium for the cells to 10 μg/ml of conjugate and 1% ethanol. The cells were incubated at 37° C. in an atmosphere of 5% CO2 for 20 minutes with the compounds. […]
(§5) The confocal laser scanning microscopy was performed on an inverted LSM510 laser scanning microscope (Carl Zeiss) (objective: LD Achroplan 40×0.6, Plan Neofluar 20×0.50, 40×0.75). For the rhodamine fluorescence excitation the 543 nm beam of a helium-neon laser with suitable beam splitters and barrier filters were used. […]

[2] = Tolerability in the animals; assay type: in vivo; conditions: intraperitoneal injection, nude mice
[3] = system: human prostate carcinoma (PC3) implanted into nude mice; test: CLSM of frozen sections of implanted tumor after intraperitoneal injection; assay type: in vivo, nude mouse
Experimental: as §1
To evaluate the in- and efflux of the rhodamine conjugated compound 1, the experiment was repeated with circulation times of 20 minutes and 180 minutes.
as §2

[4] = system: PC-3 prostate carcinoma cells; test: Confocal laser scanning microscopy (CLSM) of cellular uptake; assay type: cell-based, human; conditions: 20 minutes incubation, 10 μg/ml
Experimental: as §3, §4
(§6) The compounds 1, 2 and 4 were dissolved at 1 mg/ml in pure ethanol (Riedel de Haen, Sigma-Aldrich, Taufkirchen, Germany) and then diluted in the appropriate medium for the cells to 10 μg/ml of conjugate and 1% ethanol. The cells were incubated at 37° C. in an atmosphere of 5% CO2 for 20 minutes with the compounds. After this, the cells were rinsed three times with medium and then incubated with medium again. This experiment was also performed with free sulforhodamine B with a corresponding amount.
The compound 10 was dissolved in culture medium (260 μM). Lys(FITC)-aminobourgeonal (compound 7) was dissolved in culture medium with 1% ethanol (260 μM). The cells were incubated for 20 minutes (compound 10) and for 2 days (compounds 7 and 10). This assay was also performed with free FITC. After the incubation the cells were rinsed three times with medium and again incubated in medium. Propidium iodide (PI) (molecular probes, Eugene, Oreg., USA) was added to stain death cells.
as §5

[5] = system: non-prostate tumor cell lines (colo 205 colon carcinoma, U373 glioma, U2OS osteosarcoma, HeLa cervix carcinoma, jurkat lymphoma); test: as above; assay type: cell-based, human; conditions: all other (non-prostate) tumor cells; 20 minutes incubation; 10 μg/ml
Experimental: as §3, §4, §6
(§7) The confocal laser scanning microscopy was performed on an inverted LSM510 laser scanning microscope (Carl Zeiss) (objective: LD Achroplan 40×0.6, Plan Neofluar 20×0.50, 40×0.75). For the rhodamine fluorescence excitation the 543 nm beam of a helium-neon laser with suitable beam splitters and barrier filters were used. All measures were performed at least three times on living, non-fixed cells.

[6] = system: LNCaP prostate carcinoma cells; test: as above; assay type: cell-based, human; conditions: 20 minutes incubation, 10 μg/ml
Experimental: as §3, §4, §6, §7

PC3 prostate carcinoma = test: Touch prints of the tumor after intraperitoneal injection; assay type: in vivo, nude mouse; conditions: 20 minutes after intraperitoneal injection; no fixation
Experimental: For touch prints, the tumor of a mouse treated with the rhodamine containing compound 1 (1.5 mg intraperitoneally for 20 minutes) was excised. The tumor was cut and the cells were streaked onto a slide without fixation. The tumor cells were immediately analyzed by CLSM (without fixation).
as §2

Structure (SMILES): CCN(CC)c1ccc2c(-c3ccc(S(=O)(=O)NCCCCCCCCCCC=O)cc3S(=O)(=O)O)c3ccc(=[N+](CC)CC)cc-3oc2c1 [compound 1, sulforhodamine-sulfonamido-aminoundecylic aldehyde]
- staining of healthy prostate tissue of the mouse (nude mice organs): almost no staining
- uptake into the cells (rhodamine staining, CLSM) [1]: take up the compound according to the invention into the cytoplasm
- tolerability [2]: very well tolerated by the animals
- absorption into the cytoplasm of the prostate carcinoma cells ([3]; 20 minutes after intraperitoneal injection): very well absorbed
- rhodamine fluorescence of the prostate carcinoma in frozen sections ([3]; 90 minutes after intraperitoneal injection, in comparison to lymph nodes and lung): significantly stronger red fluorescence
- compound in the cytoplasm of the prostate carcinoma cells ([3]; 180 minutes after intraperitoneal injection): efflux of the compound out of the cytoplasm
- uptake into the cells (rhodamine staining, CLSM) [4]: take up the compound according to the invention into the cytoplasm
- uptake into the cells (rhodamine staining, CLSM) [5]: do not take up the compound according to the invention
- uptake into the cells (rhodamine staining, CLSM) [6]: take up the compound according to the invention into the cytoplasm
- compound in tumor cells of touch prints (PC3 prostate carcinoma): reached the cytoplasm of the prostate carcinoma cells
